Experimental findings from patent US5661153A, “1-arylpyrimidine derivatives and pharmaceutical use thereof” (Japan Energy Corporation, priority 1994, dated 1997) are described below.

The subject of assay [1] is passive cutaneous anaphylaxis (PCA) reaction. The assay is described as follows: Inhibiting effect on a 48 hour PCA reaction (test method for compound prepared in Example 22). The format is in vivo, male Wistar strain rats. Particulars: 100 mg/kg orally 30 minutes before the induction; dye leakage. The method, then: (§1) Eight-weeks old male Wistar strain rats were immunized by subcutaneously injecting 0.1 ml of 700-fold diluted DNP-Ascaris antiserum (titer=1:1024) at two positions on the dorsum. Forty-eight hours after the immunization, 1 ml of a 0.5% Evans blue solution containing 1 mg of DNP-Ascaris antigen was administered into a pedal vein to induce a PCA reaction. Thirty minutes after the induction, the rats were bled to death and blue circular parts appearing at the immunized positions were excised. The dye was extracted from the blue circular parts with ethyl acetate and the amount of the dye leakage was determined. A test substance was suspended in a 0.5% CMC-Na solution and administered orally to each rat at a dose of 100 mg/kg 30 minutes before the induction.
(§2) Using a reference group to which only a 0.5% CMC-Na solution was administered orally, a reference value for the amount of dye leakage was obtained. The percent inhibition was determined as 100% when the amount of dye leakage was zero and as 0% when the amount of dye leakage was equal to the reference value. On the basis of these criteria, the percent inhibition of each test substance was calculated at varying doses.

The test system is the same in assay [2]. In words: Inhibiting effect on a 48 hour PCA reaction (test method for compound prepared in Example 1). Particulars: 100 mg/kg orally 1 hour before the induction; dye leakage. In kind it is in vivo, male Wistar strain rats. The method, then: as §1, with “0.05” for “0.1”, “50-fold” for “700-fold”, “(titer=1:64)” for “(titer=1:1024)”, “four” for “two”, “tail” for “pedal”, “1 hour” for “at a dose of 100 mg/kg 30 minutes”
as §2

On to `COc1ccc(/C=C/C(=O)Nc2ccccc2C(=O)O)cc1OC` [Tranilast, tranilast, reference compound], for which the “Percent Inhibition” value in assay [1] is 35%; in assay [2] it was 66%.
